Here are results for two molecules from publication PMC4818757, “Small molecule inhibitors of the Dishevelled‐CXXC5 interaction are new drug candidates for bone anabolic osteoporosis therapy” (EMBO Molecular Medicine, 2016).

Each structure is given as a SMILES string. Entries after “also recorded” stand apart in the source; their conditions may differ.

The subject of assay [1] is primary osteoblast cells. Briefly: ALP staining of primary calvaria (osteoblast) cells. It is filed as cell-based, mouse. The settings on record: 4 days. How it is done: Figure 3 Effect of KY‐02061 on Wnt/β‐catenin pathway, osteoblast differentiation, and ex vivo‐cultured calvaria growth • A MC3T3E1 cells were transfected with pTOPFLASH together with pCMV‐β‐gal. After 24 h, the cells were treated with DMSO, KY‐02061 in DMSO, or 5 μM PolyR‐DBM for 2 days. The luciferase activities of whole‐cell lysates were measured and normalized with β‐galactosidase activities. (n = 3) • B Primary calvaria cells were isolated from the calvariae of 4‐day‐old mice (Manton et al, 2007) and treated with DMSO or KY‐02061 in DMSO for 4 days. ALP activity levels were visualized by ALP staining. • C Primary calvaria cells were treated with DMSO or 5 μM KY‐02061 in DMSO for 14 days. […] The calvaria thicknesses were measured from the stained sections using Image Pro software (E). […] (error bars), and significance was assessed using unpaired Student's t‐test.
MC3T3E1 cells and primary calvaria cells were maintained in supplemented α‐MEM. […] For quantitative real‐time PCR (qRT–PCR), total mRNAs were extracted using TRIzol (Invitrogen), complementary DNAs were prepared using Maxime PCR PreMix (iNtRON Biotechnology, Sungnam, Korea), and the qRT–PCRs were performed using SYBR Premix Ex Taq (TaKaRa, Shiga, Japan) in the StepOnePlus Real‐Time PCR machine (Thermo Fisher Scientific, Waltham, MA). […]

Assay [2] addresses T1, Dvl PDZ domain (Homo sapiens, UniProt O14640).
T1 construct: plasmid DNA encoding Dvl-1247- 341 (the Dvl PDZ domain); His-tag (TEV-cleavable) (cleaved yes); made in house; host or cells: E. coli BL21 (DE3)
T1 sequence (O14640 247-341 limits assumed): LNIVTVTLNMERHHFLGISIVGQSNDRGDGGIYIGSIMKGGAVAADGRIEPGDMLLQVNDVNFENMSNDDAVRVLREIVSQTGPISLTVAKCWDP
Briefly: Fluorescence quenching of Dvl PDZ domain. As to conditions: read-out: binding affinity between Dvl PDZ domain and compound. As for the experimental part:
Figure 4 Binding of KY‐02327, a KY‐02061 analog, on Dvl PDZ domain • A The chemical structure of KY‐02327. • B A competition curve for the Dvl–CXXC5 interaction by KY‐02327. • C Fluorescence quenching plot of Dvl PDZ domain upon addition of different amounts of KY‐02327. From top to bottom, final molar ratio between Dvl PDZ and KY‐02327 was 1:0, 1:1, 1:2, 1:3, 1:4, 1:5, 1:6, 1:7, 1:8, 1:9, 1:10, 1:15, 1:20, and 1:25, respectively. • D–F ^1H‐^15N‐HSQC analyses were performed to analyze the interaction of ^15N‐labeled Dvl PDZ domain with KY‐02327. […] Plot of chemical shift changes (Δδ) as a function of residue number in molecular ratio 1:20 (E, a red‐colored line indicates the line for Δδ = 0.05). The residues with Δδ greater than 0.05 are visualized as a stick model on the ribbon representation of the Dvl PDZ domain structure (F). • G Molecular docking of KY‐02061 or KY‐02327 to Dvl PDZ domain was analyzed by in silico experiments. The superimposed structure of KY‐02061 (yellow) and KY‐02327 (cyan) on the surface of Dvl PDZ domain (gray) was visualized.

On to `CCOC(=O)Cn1c(C(=O)OCC)cc2cc(OS(=O)(=O)c3ccc(C)cc3)ccc21` [KY‐02061], for which the “Alkaline phosphatase (ALP) activity” value in assay [1] (2 μM) was “increased; also recorded: strongest increase”. Moreover, the “ALP activity, dose dependence” value in assay [1] was “increased in a dose‐dependent manner”. Regarding `CCOC(=O)c1cc2cc(O)ccc2n1CC(=O)NCCN1CCCCC1` [KY‐02327], the Kd in assay [2] was 8.31 ± 0.8 µM.
